Measurements reported in the NIST ThermoML archive (doi:10.1021/je7003758).
Numbers after ± are expanded uncertainties.

Assay: xn = mol fraction of the nth substance listed
Settings: 298.15 K, Liquid

ClCCCl [1,2-dichloroethane] + CN1CCCC1=O
mass density [kg/m3]
Settings	x2 = 0.0993	x2 = 0.2025	x2 = 0.3012	x2 = 0.4029	x2 = 0.4975	x2 = 0.5832	x2 = 0.7037	x2 = 0.7984	x2 = 0.9029
10000 kPa	–	–	–	1156.4 ± 0.7	–	1116.4 ± 0.6	1091.1 ± 0.5	1072 ± 0.4	1051.7 ± 0.4
10500 kPa	1229.6 ± 0.9	1203.9 ± 0.8	1180.4 ± 0.8	1156.7 ± 0.7	1135.4 ± 0.6	1116.7 ± 0.6	1091.4 ± 0.5	1072.2 ± 0.4	1051.9 ± 0.4
10900 kPa	–	–	1180.7 ± 0.8	–	–	1117 ± 0.6	–	–	–
11000 kPa	1230 ± 1	1204.3 ± 0.9	–	1157.1 ± 0.7	1135.7 ± 0.6	–	1091.7 ± 0.5	1072.5 ± 0.4	1052.2 ± 0.4
11500 kPa	1230.4 ± 1	1204.6 ± 0.9	1181.1 ± 0.8	1157.5 ± 0.7	1136.1 ± 0.6	1117.4 ± 0.6	1092 ± 0.5	1072.8 ± 0.4	1052.4 ± 0.4
11900 kPa	–	–	–	–	1136.4 ± 0.7	–	–	–	–
12000 kPa	1230.8 ± 1	1205.1 ± 0.9	1181.5 ± 0.8	1157.8 ± 0.7	–	1117.7 ± 0.6	1092.3 ± 0.5	1073 ± 0.4	1052.7 ± 0.4
12500 kPa	1231.3 ± 1	1205.5 ± 0.9	1181.9 ± 0.8	1158.2 ± 0.7	1136.8 ± 0.7	1118 ± 0.6	1092.6 ± 0.5	1073.3 ± 0.5	1053 ± 0.4
13000 kPa	1231.7 ± 1	1205.9 ± 0.9	1182.2 ± 0.8	1158.5 ± 0.8	1137.1 ± 0.7	1118.3 ± 0.6	1092.8 ± 0.5	1073.6 ± 0.5	1053.2 ± 0.4
13400 kPa	–	–	–	–	1137.4 ± 0.7	–	–	–	–
13500 kPa	1232.1 ± 1	1206.2 ± 0.9	1182.6 ± 0.9	1158.8 ± 0.8	–	1118.5 ± 0.6	1093.2 ± 0.5	1073.9 ± 0.5	1053.5 ± 0.4
14000 kPa	1232.5 ± 1.1	1206.6 ± 1	1183 ± 0.9	1159.2 ± 0.8	1137.7 ± 0.7	1118.9 ± 0.6	1093.4 ± 0.5	1074.2 ± 0.5	1053.8 ± 0.4
14500 kPa	1232.9 ± 1.1	1207 ± 1	–	1159.5 ± 0.8	1138 ± 0.7	1119.2 ± 0.6	1093.7 ± 0.5	1074.4 ± 0.5	1054.1 ± 0.4
14600 kPa	–	–	1183.4 ± 0.9	–	–	–	–	–	–
15000 kPa	1233.3 ± 1.1	1207.4 ± 1	1183.7 ± 0.9	1159.8 ± 0.8	1138.4 ± 0.7	1119.4 ± 0.7	–	–	–
